Data on 64 compounds can be found in paper PMC5653977 (EMBO Molecular Medicine, 2017).

Where a name gives a salt, the structure may show the parent alone. Read-outs that look alike come from different tables or passages of the source.

In this experiment the test system is NRG1-ERBB4 signaling. Description: Nrg1-ERBB4-PIK3R1 split TEV co-culture compound screen of the NIH Clinical Collection. Type of experiment: cell-based, human.
Setting [1] is: compounds at 10 μM, 24 h, PC12 split TEV assay cells co-cultured with Nrg1-expressing PC12 cells, analysed with cellHTS2.
Where [2] appears, read: compound screen of the NIH Clinical Collection, sheet raw data NCC-003, compounds ranked by Z-score.
Where [3] appears, read: NIH Clinical Collection NCC-003 raw data, compounds ranked by Z-score, 'flagged' given instead of a Z-score.

In the case of `Cc1cccc(CN2CCN(C(c3ccccc3)c3ccc(Cl)cc3)CC2)c1.Cl` (stereo not shown) [Duremesin, reference compound], the Z-SCORE under setting [1] was -0.76.
For the compound `CCN1CCC[C@H]1CNC(=O)c1c(O)c(Cl)cc(Cl)c1OC` [Raclopride], the Z-SCORE under setting [2] was -0.81.
Regarding `CN(C)C(=O)C(CCN1CCC(O)(c2ccc(Cl)cc2)CC1)(c1ccccc1)c1ccccc1` [Imodium, reference compound], under setting [1], the Z-SCORE was -0.18.
Consider `N#CCc1ccccc1` [Benzeneacetonitrile], for which, under setting [2], the Z-SCORE was determined as 0.03.
With `CC[N+](C)(C)c1cccc(O)c1` [EDROPHONIUM CHLORIDE, reference compound], under setting [1], the Z-SCORE is recorded as -1.53.
Under setting [2], `O=C(CCNNC(=O)c1ccncc1)NCc1ccccc1` [NIALAMIDE] registered a Z-SCORE of 1.7.
On to `CCN(CC)CCOc1ccc(C(=C(Cl)c2ccccc2)c2ccccc2)cc1` [Clomid, reference compound], for which the Z-SCORE under setting [1] was -1.33.
The same measure, in the same setting: in the case of `CC(C)n1c(/C=C/C(O)CC(O)CC(=O)O)c(-c2ccc(F)cc2)c2ccccc21` (stereo not shown) [fluvastatin, reference compound] it was “flagged”; in that of `Cc1ccc(C)c(OCCCC(C)(C)C(=O)O)c1` [GEMFIBROZIL, reference compound], 0.52; in that of `CCOC(=O)[C@H](CCc1ccccc1)N[C@@H](C)C(=O)N1Cc2ccccc2C[C@H]1C(=O)O` [Quinapril hydrochloride, reference compound], -1.66.
Same read-out and setting: in the case of `NC(=O)c1cnccn1` [Pyrazinamide, reference compound] it was 1.05.
As for `CC(C)(C#N)c1cc(Cn2cncn2)cc(C(C)(C)C#N)c1` [ANASTROZOLE], the Z-SCORE under setting [2] is on record as -0.16.
Consider `Clc1ccc2nsnc2c1NC1=NCCN1` [Tizanidine hydrochloride, reference compound], for which the Z-SCORE under setting [1] is -0.96.
Take `COC(=O)C1=C(C)NC(C)=C(C(=O)OC(C)C)C1c1cccc2nonc12` (stereo not shown) [ISRADIPINE]: under setting [3], the Z-SCORE is on record as -1.94.
For `CC[C@@H](C(N)=O)N1CCCC1=O`, under setting [2], the Z-SCORE is given as -0.28.
For `C[C@]12CCC(=O)C=C1CC[C@@H]1[C@@H]2[C@@H](O)C[C@@]2(C)[C@H]1CC[C@]2(O)C(=O)COC(=O)CCC(=O)O` [HYDROCORTISONE HEMISUCCINATE, reference compound], the Z-SCORE under setting [1] was -1.64.
`CC1CCN(CCCC(=O)c2ccc(F)cc2)CC1` [Metylperon]: the Z-SCORE under setting [2] was 0.36.
On the same count and under the same terms, in the case of `Cc1cccc(C)c1NC(=O)C(C)N` (stereo not shown) [TOCAINIDE] it was -0.41.
For the compound `Cc1ccc(-c2cc(C(F)(F)F)nn2-c2ccc(S(N)(=O)=O)cc2)cc1` [Celecoxib, reference compound], under setting [1], the Z-SCORE is -0.36.
Consider `CN[C@H]1CC[C@@H](c2ccc(Cl)c(Cl)c2)c2ccccc21` [Sertraline, reference compound], for which the Z-SCORE is -0.03 under setting [2] and “flagged” under setting [1].
In the case of `COc1cc(C(=O)NC2CCCNC2)cc(OC)c1OC` (stereo not shown) [TROXIPIDE], the Z-SCORE under setting [2] is recorded as -0.33.
`COc1ccc(Cl)cc1C(=O)NCCc1ccc(S(=O)(=O)NC(=O)NC2CCCCC2)cc1` [Glyburide, reference compound]: under setting [1], the Z-SCORE is -0.5.
`CN(C)CCC[C@@]1(c2ccc(F)cc2)OCc2cc(C#N)ccc21` [ESCITALOPRAM OXALATE]: under setting [2], the Z-SCORE is -0.11.
`CN(C)CCOC(C)(c1ccccc1)c1ccccn1.O=C(O)CCC(=O)O` (stereo not shown) [Doxylamine succinate salt]: the Z-SCORE under setting [2] is reported as 0.36.
Consider `O=C1CN(/N=C/c2ccc([N+](=O)[O-])o2)C(=O)N1` [NITROFURANTOIN, reference compound], for which the Z-SCORE under setting [1] is -0.02.
In the case of `CC(=O)O.NCc1ccc(S(N)(=O)=O)cc1` [4-(AMINOMETHYL)BENZENESULFONAMIDE ACETATE, reference compound], the Z-SCORE under setting [1] stood at 0.49.
With `CC(N)C12CC3CC(CC(C3)C1)C2` (stereo not shown) [Flumadine, reference compound], the Z-SCORE under setting [1] is recorded as -0.97.
Same read-out and setting: in the case of `CC(CCc1ccccc1)NCC(O)c1ccc(O)c(C(N)=O)c1` (stereo not shown) [LABETALOL HYDROCHLORIDE, reference compound] it was -1.04.
In the case of `CC(C)(C)NCC(O)c1ccc(O)c(CO)c1.CC(C)(C)NCC(O)c1ccc(O)c(CO)c1.O=S(=O)(O)O` (stereo not shown) [SALBUTAMOL SULFATE], the Z-SCORE under setting [2] is -0.61.
With `Cc1cn([C@H]2C=C[C@@H](CO)O2)c(=O)[nH]c1=O` [STAVUDINE, reference compound], the Z-SCORE is recorded as 0.08 under setting [2] and 0.2 under setting [1].
On to `O=P1(N(CCCl)CCCl)NCCCO1` (stereo not shown) [Cytoxan, reference compound], for which the Z-SCORE is reported as -0.97.
Under setting [2], `CS(=O)(=O)c1ccc(-c2cc(Br)sc2-c2ccc(F)cc2)cc1` came in with a Z-SCORE of 0.49.
Still for that read-out and setting: in the case of `CC(COc1ccccc1Cc1ccccc1)N1CCCCC1.O=P(O)(O)O` (stereo not shown) [BENPROPERINE PHOSPHATE] it was -0.08; in that of `CN(Cc1cnc2nc(N)nc(N)c2n1)c1ccc(C(=O)N[C@@H](CCC(=O)O)C(=O)O)cc1`, 0.85.
With `C[C@H]1[C@H](OC(=O)CCC(=O)O)O[C@@H]2O[C@@]3(C)CC[C@H]4[C@H](C)CC[C@@H]1[C@@]24OO3` [ARTESUNATE], the Z-SCORE result under setting [3] is “flagged”.
Take `c1ccc2c(c1)Nc1ccccc1S2` [PHENOTHIAZINE]: the Z-SCORE under setting [2] is on record as -0.03.
Turning to `COc1cc(OC)c(C(=O)CCCN2CCCC2)c(OC)c1.Cl` [Buflomedil HCl], the Z-SCORE under setting [2] worked out at 0.75.
The same measure, in the same setting: in the case of `CC#C[C@]1(O)CC[C@H]2[C@@H]3CCC4=CC(=O)CCC4=C3[C@@H](c3ccc(N(C)C)cc3)C[C@@]21C` [MIFEPRISTONE] it was 0.02.
Same read-out and setting: under `C[C@H]1O[C@H](O[C@H]2[C@H](O)[C@@H](O)[C@@H](O[C@H]3[C@H](O)[C@@H](O)C(O)O[C@@H]3CO)O[C@@H]2CO)[C@H](O)[C@@H](O)[C@@H]1N[C@H]1C=C(CO)[C@@H](O)[C@H](O)[C@H]1O` (stereo partly shown) [ACARBOSE] stands -0.8.
Still for that read-out and setting: under `CC(C)c1ccc2c(c1)c(SC(C)(C)C)c(CC(C)(C)C(=O)O)n2Cc1ccc(Cl)cc1` stands 0.23; under `Oc1ccc2c3c1O[C@H]1c4[nH]c5ccccc5c4C[C@@]4(O)[C@@H](C2)N(CC2CC2)CC[C@]314` [Naltrindole], -0.41.
Turning to `COc1c2occc2cc2ccc(=O)oc12` [Methoxsalen, reference compound], the Z-SCORE under setting [1] is reported as 0.16.
In the case of `COC(=O)C1=C(C)NC(C)=C(C(=O)OC)C1c1ccccc1[N+](=O)[O-]` [NIFEDIPINE], the Z-SCORE under setting [2] came to 2.68.
Still for that read-out and setting: under `CCCCC/C=C\C/C=C\C/C=C\C/C=C\CCCC(=O)Nc1ccc(O)cc1` [AM 404] stands -1.01.
In the case of `CNC(=C[N+](=O)[O-])NCCSCc1ccc(CN(C)C)o1` [Ranitidine hydrochloride, reference compound], the Z-SCORE under setting [1] is recorded as -0.51.
Take `CCC1(c2ccc(N)cc2)CCC(=O)NC1=O` (stereo not shown) [Aminoglutethimide, reference compound]: under setting [1], the Z-SCORE is on record as -0.62.
As for `COc1cc(Cc2cnc(N)nc2N)cc(OC)c1OC` [Trimethoprim, reference compound], the Z-SCORE under setting [1] amounted to 0.28.
The same measure, in the same setting: in the case of `NS(=O)(=O)c1cc(C(=O)O)c(NCc2ccco2)cc1Cl` [FUROSEMIDE, reference compound] it was 0.8.
Consider `O=C1Nc2ccc(Cl)cc2[C@@](C#CC2CC2)(C(F)(F)F)O1` [EFAVIRENZ], for which the Z-SCORE result under setting [3] is listed as “flagged”.
Consider `OCCN(CCO)c1nc(N2CCCCC2)c2nc(N(CCO)CCO)nc(N3CCCCC3)c2n1` [DIPYRIDAMOLE, reference compound], for which the Z-SCORE under setting [1] is on record as -1.46.
For the compound `CC(=O)O[C@H]1C[C@@H]2CC[C@@H]3[C@H](CC[C@@]4(C)[C@H]3C[C@H]([N+]3(C)CCCCC3)[C@@H]4OC(C)=O)[C@@]2(C)C[C@@H]1N1CCCCC1` [VECURONIUM BROMIDE], under setting [2], the Z-SCORE is 0.97.
Under setting [1], `CCc1cc(C(N)=S)ccn1` [Ethionamide, reference compound] displayed a Z-SCORE of 0.42.
On to `CCC(C)n1ncn(-c2ccc(N3CCN(c4ccc(OCC5COC(Cn6cncn6)(c6ccc(Cl)cc6Cl)O5)cc4)CC3)cc2)c1=O` (stereo not shown) [Itraconazole, reference compound], for which the Z-SCORE is given as -3.6 under setting [3] and -3.6 under setting [1].
In the case of `Oc1ccc(C2CNCCc3c2cc(O)c(O)c3Cl)cc1` (stereo not shown) [FENOLDOPAM MESYLATE], the Z-SCORE under setting [2] is on record as -0.37.
For the compound `CC(=O)O[C@@]12CO[C@@H]1C[C@H](O)[C@@]1(C)C(=O)[C@H](O)C3=C(C)[C@@H](OC(=O)[C@H](O)[C@@H](NC(=O)OC(C)(C)C)c4ccccc4)C[C@@](O)([C@@H](OC(=O)c4ccccc4)[C@H]21)C3(C)C` [DOCETAXEL], the Z-SCORE under setting [3] was -1.13.
Turning to `Cc1nccn1CC1CCc2c(c3ccccc3n2C)C1=O.Cl` (stereo not shown) [ONDANSETRON HYDROCHLORIDE], the Z-SCORE under setting [2] stood at 0.51.
Consider `C#C[C@]1(OC(C)=O)CC[C@H]2[C@@H]3CCC4=CC(=O)CC[C@@H]4[C@H]3CC[C@@]21C` [19-NORETHINDRONE ACETATE, reference compound], for which the Z-SCORE under setting [1] was -0.99.
`CNC1=Nc2ccc(Cl)cc2C(c2ccccc2)=[N+]([O-])C1` [CHLORDIAZEPOXIDE] had a Z-SCORE under setting [2] of 0.41.
Same read-out and setting: in the case of `COc1ccc2c(c1)c(CC(=O)O)c(C)n2C(=O)c1ccc(Cl)cc1` [Indomethacin] it was 0.08.
`CC(=O)[C@]1(O)Cc2c(O)c3c(c(O)c2[C@@H](O[C@H]2C[C@H](N)[C@H](O)[C@H](C)O2)C1)C(=O)c1ccccc1C3=O` [IDARUBICIN HCl]: the Z-SCORE entry under setting [3] was “flagged”.
On the same count and under the same terms, under `Nc1ccn([C@@H]2O[C@H](CO)[C@@H](O)[C@@H]2O)c(=O)n1` stands -1.99.
In turn, `CS(=O)(=O)O.O=C(O[C@H]1C[C@H]2CC3C[C@@H](C1)N2CC3=O)c1c[nH]c2ccccc12` [DOLASETRON MESYLATE] displayed a Z-SCORE under setting [2] of 0.23.
As to `CN1CCC(=C2c3ccccc3CCc3sccc32)CC1` [Pizotyline], the Z-SCORE under setting [2] is reported as -0.22.
On the same count and under the same terms, in the case of `C[C@]12C/C(=C/O)C(=O)C[C@@H]1CC[C@@H]1[C@@H]2CC[C@@]2(C)[C@H]1CC[C@]2(C)O` [Oxymetholone] it was 1.79.
